According to US20230272012A1, “PEPTIDES AND METHODS OF USE” (REALTA LIFE SCIENCES, INC., priority 2020, published 2023):
Entries after “also recorded” stand apart in the source; their conditions may differ. Bridge positions count the residues as written; N and C are the ends. Square brackets hold non-standard residues; d marks the D form. Ends that are not written are not given here. Peptide text beside a SMILES is read from it. R8 = C=CCCCCCC[C@@](C)(N)C(=O)O; S5 = C=CCCC[C@](C)(N)C(=O)O; Sar = CNCC(=O)O

Tests used:
Assay type in all cases: cell-based
[1] = tested on: purified human Pan T-cells; assay: T-cell exhaustion protocol (Dynabeads re-stimulation); details: peptides 2 mg/ml at each stimulation; for IL-2 signal at stimulation 2: supernatant ELISA
Description: Purified human pan-T-cells were subject to stimulation with Dynabeads every 48 hours over the period of 8 days with cells also receiving PIC1 peptides (2 mg/ml) at each stimulation. Cells not receiving Dynabeads were run in parallel to assess background levels of Caspase 3/7 signal. At the eighth day, cells were harvested and the levels of Caspase 3/7 determined by ELISA.
Purified human pan-T-cells were subject to stimulation with Dynabeads every 48 hours over the period of 8 days with cells also receiving PIC1 peptides (2 mg/ml) at each stimulation. Cell supernatants were collected at each stimulation and levels of IL-2 and IFN-gamma assayed by ELISA.
T-cell exhaustion is a form of T-cell dysfunction that occurs in cancer. It is defined by poor effector function, reduction in cytokine release (e.g., IL-2, TNF-alpha, IFN-gamma), sustained expression of inhibitory receptors (e.g., PD-1, LAG-3, CD244, CD160) with the progressive loss of effector function due to overstimulation. Exhaustion prevents optimal control of tumor growth. Exhausted T cells are prevalent in the tumor microenvironment (TME) and can lead to T-cell apoptosis. T-cell exhaustion is reversible, and pharmaceutical inhibition of T-cell exhaustion has been considered a promising strategy by many cancer researchers. To ascertain if PIC1 peptides could reverse T-cell exhaustion and increase T cell viability and effector function, a T-cell exhaustion protocol was developed. To induce T-cell exhaustion, purified human Pan T-cells were stimulated with T-Activator CD3/CD28 Dynabeads and cells are washed and re-stimulated every 48 hours. PIC1 peptides were added to the cells after each stimulation with Dynabeads. After three to four stimulations cells were harvested for readouts which consisted of assessing T-cell apoptosis by measuring Caspase 3/7 levels and production of cytokines IL-2 and IFN-gamma which is indicative of T-cell functionality. […] To further evaluate if PIC1 peptides could restore T-cell functionality in cells that have undergone the exhaustion protocol, the inventors next assessed production of cytokines IL-2 and IFN-gamma. Supernatants from the cells after each stimulation were collected and the cytokines measured by ELISA. […] The lower level of IFN-gamma signal compared to IL-2 was consistently seen in this assay.

[2] = tested on: antibody-initiated complement activation (human O sera and AB red blood cells); assay: ABO incompatibility hemolytic assay of complement activity (CH50-type); details: for inhibition of complement activation in vitro, dose response: human AB red blood cells, human O plasma, increasing amounts of peptide
Method in brief: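 Type AB human erythrocytes (5.0×10^7) incubated with 15% (final) type O human serum and 0.5 mM peptide in GVBS^++, 1 h at 37 °C. Hemolysis read as supernatant absorbance at 412 nm, expressed as percent of the serum-plus-RBC positive control; means of three independent experiments ±SEM.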

CTLA-4 = target: T1, CTLA-4 (Homo sapiens, UniProt P16410); assay: CTLA-4 Blockade Bioassay (Promega); parameters: host or cells: Jurkat T cells (CTLA-4 effector cells); aAPC/Raji cells; details: increasing concentrations
T1 sequence (P16410 36-223): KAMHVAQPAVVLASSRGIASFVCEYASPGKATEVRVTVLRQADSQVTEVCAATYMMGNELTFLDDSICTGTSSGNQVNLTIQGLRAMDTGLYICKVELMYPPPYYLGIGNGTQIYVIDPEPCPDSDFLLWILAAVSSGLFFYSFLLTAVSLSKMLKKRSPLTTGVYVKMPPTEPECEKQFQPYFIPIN
Description: CTLA-4 effector cells were incubated with aAPC/Raji Cells in the absence or presence of increasing concentrations of anti-CTLA-4 antibody (positive control), RLS-0127*, RLS-0130, RLS-0156, RLS-0170 and RLS-0174. Luminescence was detected in luminometer plate reader.
To assess if PIC1 peptides could block CTLA-4 inhibitory activity in a cell-based assay, select peptides were screened in the CTLA-4 Blockade Bioassay (Promega). This bioluminescent cell-based assay is used to measure the potency and stability of molecules targeting CTLA-4 and consists of two genetically engineered cell lines: CTLA-4 effector cells: Jurkat T cells expressing human CTLA-4 and a luciferase reporter driven by a native promoter which responds to TCR/CD28 activation and aAPC/Raji Cells: Raji cells expressing an engineered cell surface protein designed to activate cognate TCRs in an antigen-independent manner and endogenously expressing CTLA-4 ligands CD80 and CD86. When the two cell types are co-cultured, CTLA-4 competes with CD28 for their shared ligands, CD80 and CD86 and thus inhibits CD28 pathway activation and promoter-mediated luminescence. Addition of a molecule that blocks the interaction of CTLA-4 with its ligands CD80 and CD86 results in promoter-mediated luminescence.

| Molecule | IL-2 signal at stimulation 2 [1] | inhibition of ABO incompatible hemolysis compared to PA-I8Sar ([2]; peptide 0.8 mg/ml (~0.5 mM)) | inhibitory activity in CTLA-4 blockade bioassay (luminescence) (CTLA-4) | Caspase 3/7 levels ([1]; eighth day) | inhibition of complement activation in vitro, dose response [2] |
| --- | --- | --- | --- | --- | --- |
| CC[C@H](C)[C@H](N)C(=O)N[C@]1(C)CCCCCCC=CCCC[C@@](C)(C(=O)N[C@@H](CS)C(=O)N[C@@H](CCC(N)=O)C(=O)N[C@@H](CCC(=O)O)C(=O)N[C@@H](CCCNC(=N)N)C(=O)N[C@@H](C)C(=O)N[C@@H](C)C(=O)O)NC(=O)CN(C)C(=O)[C@@H]2CCCN2C(=O)[C@H](CCC(=O)O)NC(=O)[C@H](CC(C)C)NC(=O)[C@H]([C@@H](C)CC)NC(=O)[C@H](CC(C)C)NC1=O [PA-0115, IR8LILEP(Sar)S5CQERAA] (H-I[R8]LILEP[Sar][S5]CQERAA-OH; staple 2-9) | did not | enhanced activity | did not | – | – |
| CC[C@H](C)[C@H](N)C(=O)N[C@@H](C)C(=O)N[C@@H](CC(C)C)C(=O)N[C@H](C(=O)N[C@@H](CC(C)C)C(=O)N[C@@H](CCC(=O)O)C(=O)N1CCC[C@H]1C(=O)N(C)CC(=O)N[C@@H](CS)C(=O)N[C@@]1(C)CCCC=CCCC[C@@](C)(C(=O)N[C@@H](C)C(=O)O)NC(=O)[C@H](CCCNC(=N)N)NC(=O)[C@H](CCC(=O)O)NC(=O)[C@H](CCC(N)=O)NC1=O)[C@@H](C)CC [PA-0117, IALILEP(Sar)CS5QERS5A] (H-IALILEP[Sar]C[S5]QER[S5]A-OH; staple 10-14) | showed an IL-2 signal at stimulation 2 | – | did not | very low to undetectable levels of Caspase 3/7 | – |
| IALILEP(Sar)CCQERA (IALILEP[Sar]CCQERA; cysteine pairing not given here) [RLS-0133*] | did not | – | did not | – | dose-dependently inhibited complement activation; also recorded: inhibit complement activation |
| IALILEP(Sar)dCCQERRA (IALILEP[Sar][dC]CQERRA; cysteine pairing not given here) [RLS-0127*] | showed an IL-2 signal at stimulation 2 | – | showed inhibitory activity; also recorded: able to inhibit CTLA-4 mediated cell signaling | – | dose-dependently inhibited complement activation; also recorded: very similar levels of inhibition to the positive control; also recorded: inhibit complement activation |
